Laboratory results from US11878063B2, “Engineered ligands and uses thereof” (Children's Medical Center Corporation, priority 2019, dated 2024).

Assays:
[1] = target: T1, rat PTHR1 (Rattus norvegicus, UniProt P25961); test: cAMP induction in HEK293 cells stably expressing rat PTHR1; type: cell-based; conditions: maximal cAMP response, normalized
T1 construct: expressed in transfected cells
T1 sequence (P25961 27-591): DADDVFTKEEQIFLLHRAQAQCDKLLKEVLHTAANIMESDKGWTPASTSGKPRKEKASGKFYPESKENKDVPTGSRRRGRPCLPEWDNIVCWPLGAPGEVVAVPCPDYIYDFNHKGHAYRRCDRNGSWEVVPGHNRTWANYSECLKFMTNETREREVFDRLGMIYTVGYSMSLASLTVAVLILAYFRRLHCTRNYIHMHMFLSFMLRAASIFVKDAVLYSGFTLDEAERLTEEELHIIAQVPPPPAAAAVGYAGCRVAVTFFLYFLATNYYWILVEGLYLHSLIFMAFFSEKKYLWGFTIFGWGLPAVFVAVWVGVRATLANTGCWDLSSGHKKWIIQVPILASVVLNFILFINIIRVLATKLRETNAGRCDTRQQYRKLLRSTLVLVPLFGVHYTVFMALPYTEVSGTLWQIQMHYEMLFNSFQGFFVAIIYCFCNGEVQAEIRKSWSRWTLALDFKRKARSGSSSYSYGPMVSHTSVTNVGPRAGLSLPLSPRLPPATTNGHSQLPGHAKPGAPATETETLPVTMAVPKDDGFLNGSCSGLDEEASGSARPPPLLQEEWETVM
Procedure: (§1) Measurement of cAMP response. These assays were performed as previously described^27. […] Confluent monolayers of cells were pre-incubated with CO2 independent medium containing D-luciferin (0.5 mM) at 37° C. until a stable baseline level of luminescence was established (20 min). Varying concentrations of ligands were then added, and the time course of luminescence response was recorded using BioTek plate reader.
(§2) Data calculations. Data were processed using Microsoft Excel and GraphPad Prism 6. Data from cAMP dose-response assays were analyzed using a sigmoidal dose-response model with variable slope. Data sets were statistically compared by using Student's t test (two-tailed) assuming unequal variances for the two sets.

[2] = target: T2, human PTHR1 (Homo sapiens, UniProt Q03431); test: cAMP induction (cAMP-responsive luciferase) in HEK293 cells stably expressing human PTHR1; type: cell-based; conditions: maximal cAMP response, normalized
T2 construct: expressed in transfected cells
T2 sequence (Q03431 27-593): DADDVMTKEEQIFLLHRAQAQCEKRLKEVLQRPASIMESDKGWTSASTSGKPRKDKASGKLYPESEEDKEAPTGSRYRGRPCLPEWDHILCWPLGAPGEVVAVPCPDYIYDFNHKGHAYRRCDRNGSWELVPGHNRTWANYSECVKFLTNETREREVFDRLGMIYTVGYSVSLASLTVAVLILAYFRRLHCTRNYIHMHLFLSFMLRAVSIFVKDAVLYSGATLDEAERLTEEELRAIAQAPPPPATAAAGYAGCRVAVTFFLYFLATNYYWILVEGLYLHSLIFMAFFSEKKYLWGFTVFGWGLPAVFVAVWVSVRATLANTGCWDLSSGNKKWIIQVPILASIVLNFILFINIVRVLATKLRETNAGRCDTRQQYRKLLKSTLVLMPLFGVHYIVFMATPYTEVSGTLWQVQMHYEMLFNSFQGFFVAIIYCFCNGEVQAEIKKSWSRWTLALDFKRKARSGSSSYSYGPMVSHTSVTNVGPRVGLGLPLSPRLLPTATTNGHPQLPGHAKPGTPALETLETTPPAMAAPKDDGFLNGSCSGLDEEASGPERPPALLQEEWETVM
Procedure: as §1, §2

[3] = target: T3, PTHR2 (Homo sapiens, UniProt P49190); test: cAMP induction in HEK293 cells stably expressing human PTHR2; type: cell-based; conditions: maximal cAMP response, normalized
T3 construct: expressed in transfected cells
T3 sequence (P49190 25-550): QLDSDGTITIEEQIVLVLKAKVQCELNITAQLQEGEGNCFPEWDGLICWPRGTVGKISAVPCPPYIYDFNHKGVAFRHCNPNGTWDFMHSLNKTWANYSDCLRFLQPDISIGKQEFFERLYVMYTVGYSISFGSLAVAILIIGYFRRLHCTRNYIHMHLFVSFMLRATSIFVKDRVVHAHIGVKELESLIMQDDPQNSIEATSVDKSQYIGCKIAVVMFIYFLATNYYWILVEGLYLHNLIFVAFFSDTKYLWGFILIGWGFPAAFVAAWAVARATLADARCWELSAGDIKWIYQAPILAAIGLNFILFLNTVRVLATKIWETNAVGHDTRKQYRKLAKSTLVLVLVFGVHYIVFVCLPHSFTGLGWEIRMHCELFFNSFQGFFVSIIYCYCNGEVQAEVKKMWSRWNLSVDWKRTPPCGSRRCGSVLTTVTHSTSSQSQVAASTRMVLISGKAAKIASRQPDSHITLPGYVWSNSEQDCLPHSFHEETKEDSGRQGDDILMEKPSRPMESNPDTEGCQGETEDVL
Procedure: as §1, §2

[4] = target: T4, PTHR16E (Homo sapiens, UniProt Q03431, A83I/D81R/G76A/K80A/K82Q/P78E/R79L/S71Q/S73D/S75E/T74Q); test: cAMP induction in HEK293 cells stably expressing PTHR16E (6E/Ubc6e epitope tag in exon 2 segment); type: cell-based; conditions: maximal cAMP response, normalized
T4 construct: expressed in transfected cells
T4 sequence (Q03431 27-593 S71Q/S73D/T74Q/S75E/G76A/P78E/R79L/K80A/D81R/K82Q/A83I): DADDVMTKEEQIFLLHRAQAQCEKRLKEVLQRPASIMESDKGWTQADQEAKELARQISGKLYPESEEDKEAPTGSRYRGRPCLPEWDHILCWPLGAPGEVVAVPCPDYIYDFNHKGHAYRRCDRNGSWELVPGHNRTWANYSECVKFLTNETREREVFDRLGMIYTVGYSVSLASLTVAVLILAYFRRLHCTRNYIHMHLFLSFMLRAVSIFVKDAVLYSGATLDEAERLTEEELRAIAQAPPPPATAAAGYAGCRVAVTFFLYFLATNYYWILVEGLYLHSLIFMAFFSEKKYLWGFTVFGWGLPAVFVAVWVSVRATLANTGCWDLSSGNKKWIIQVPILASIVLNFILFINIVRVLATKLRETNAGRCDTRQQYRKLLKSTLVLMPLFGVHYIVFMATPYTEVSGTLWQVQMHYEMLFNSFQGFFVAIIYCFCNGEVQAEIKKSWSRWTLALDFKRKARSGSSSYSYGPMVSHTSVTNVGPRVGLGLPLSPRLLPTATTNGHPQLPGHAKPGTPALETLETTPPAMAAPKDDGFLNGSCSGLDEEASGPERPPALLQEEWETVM
Procedure: (§3) Measurement of cAMP response. These assays were performed as previously described^27. Briefly, HEK-293-derived cell lines that stably express the Glosensor cAMP reporter (Promega Corp.)^30 and PTHR1, a PTHR1 variant, or PTHR2 were seeded into white sided 96 well plates (50,000 cells/well) and grown to confluency. Confluent monolayers of cells were pre-incubated with CO2 independent medium containing D-luciferin (0.5 mM) at 37° C. until a stable baseline level of luminescence was established (20 min). Varying concentrations of ligands were then added, and the time course of luminescence response was recorded using BioTek plate reader.
as §2
(§4) The portion of PTHR1 encoded by exon 2 is not resolved in structural studies (FIG. 12—Panel d)^13, 14, 17, is not important for ligand binding^18, and in past work has been targeted as a site for receptor modification^18, 19. A construct was generated that encodes a PTHR1 variant in which a 14-residue fragment from exon 2 was replaced with a 14-mer epitope tag from the intracellular protein UBC6e (PTHR16E, FIG. 12—Panel d)^20. A receptor construct in which a pH-sensitive green fluorescent protein variant (GFP) was inserted into the portion of the receptor encoded by exon 2 (PTHR1GFP in FIGS. 17A to 17C)^19. Another version of PTHR1 in which yellow fluorescent protein (YFP) replaces the entire extracellular domain (PTHR1YFPΔECD, FIG. 12—Panel e)^21, was also used.

[5] = system: PTHR1YFPΔECD; test: cAMP induction in HEK293 cells stably expressing PTHR1YFPΔECD (YFP replaces extracellular domain); type: cell-based, human
Procedure: as §3, §2, §4

For `CC[C@H](C)[C@H](NC(=O)[C@H](CCC(=O)O)NC(=O)[C@H](CO)NC(=O)[C@@H](NC(=O)[C@@H](N)CO)C(C)C)C(=O)N[C@@H](CCC(N)=O)C(=O)N[C@@H](CC(C)C)C(=O)N[C@@H](CCSC)C(=O)N[C@@H](Cc1cnc[nH]1)C(=O)N[C@@H](CC(N)=O)C(=O)N[C@@H](CC(C)C)C(=O)NCC(=O)N[C@@H](CCCCN)C(=O)N[C@@H](Cc1cnc[nH]1)C(=O)N[C@@H](CC(C)C)C(=O)N[C@@H](CC(N)=O)C(=O)N[C@@H](CO)C(=O)N[C@@H](CCSC)C(=O)N[C@@H](CCC(=O)O)C(=O)N[C@@H](CCCN=C(N)N)C(=O)N[C@H](C(=O)N[C@@H](CCC(=O)O)C(=O)N[C@@H](Cc1c[nH]c2ccccc12)C(=O)N[C@@H](CC(C)C)C(=O)N[C@@H](CCCN=C(N)N)C(=O)N[C@@H](CCCCN)C(=O)N[C@@H](CCCCN)C(=O)N[C@@H](CC(C)C)C(=O)N[C@@H](CCC(N)=O)C(=O)N[C@@H](CC(=O)O)C(=O)N[C@H](C(=O)N[C@@H](Cc1cnc[nH]1)C(=O)N[C@@H](CC(N)=O)C(=O)N[C@@H](Cc1ccccc1)C(=O)O)C(C)C)C(C)C` [PTH(1-34)], which “Max (normalized ± SD), rPTHR1” value [1] is on record?
The value was 1.00 ± 0.00.

And the “Max (normalized ± SD), hPTHR1” value [2]?
Its value is 1.00 ± 0.00.

And the “Max (normalized ± SD), hPTHR2” value [3]?
Its value is 1 ± 0.

And the “Max (normalized ± SD), hPTHR16E” value [4]?
Its value is 1 ± 0.0.

What about the “Max (normalized ± SD), hPTHR1YFPΔECD” value ([5]; maximal cAMP response, normalized) of the same molecule?
Its value is 1.00 ± 0.00.

And the EC50 ([5]; mean ± SD, Inactive = response <5% of maximal, read-out: EC50, cAMP induction, hPTHR1YFPΔECD)?
Its EC50 is 689 ± 301 nM.
